According to patent US20260272868A1 (priority 2022, published 2026):

Columns and labels:
[1] = tested on: head twitch response (HTR); format: in vivo, mice; conditions: SC; higher and lower doses result in fewer HTRs
Experimental: Male C57BL/6 mice (~7-9 weeks old) were used in these studies. Mice were housed 2 per cage under standard temperature- and humidity-controlled laboratory conditions with a 12-hour light/dark cycle. Mice had free access to food and water.
Both compounds were dissolved in saline vehicle at a dose volume of 10 mL/kg. Doses were corrected for salt form so that the dose administered represented free base.
Mice were randomly assigned to 1 of 6 treatment groups consisting of 2 subcutaneous injections (see Table 1), which were administered according to the schedule in FIG. 1. […] Behavior was videotaped by a camera (GoPro Hero 9) mounted above the testing chambers. Recorded video was uploaded for analysis of head twitch behavior. Number of head twitch responses (HTRs) was recorded for each animal for each 2-min bin. For each treatment group, the mean number of HTRs in each 2- or 10-min bin, and across the whole 30-min recording period, were analyzed.

5-HT2A receptor = target: T1, 5-HT2A receptor (Mus musculus, UniProt P35363); experiment: Ex vivo occupancy of cortical 5-HT2A receptors by DOPR, [3H]MDL100,907 autoradiography; format: in vivo, mice; conditions: for receptor occupancy at 0.32 mg/kg / receptor occupancy at 1 mg/kg / receptor occupancy at 3.2 mg/kg / receptor occupancy at 32 mg/kg: mouse, sc
T1 construct: Coronal sections containing the frontal cortex were be cut (20 μm thick) using a cryostat; from tissue; host or cells: frontal cortex sections of male C57BL/6 mouse brain
T1 sequence (P35363 whole entry): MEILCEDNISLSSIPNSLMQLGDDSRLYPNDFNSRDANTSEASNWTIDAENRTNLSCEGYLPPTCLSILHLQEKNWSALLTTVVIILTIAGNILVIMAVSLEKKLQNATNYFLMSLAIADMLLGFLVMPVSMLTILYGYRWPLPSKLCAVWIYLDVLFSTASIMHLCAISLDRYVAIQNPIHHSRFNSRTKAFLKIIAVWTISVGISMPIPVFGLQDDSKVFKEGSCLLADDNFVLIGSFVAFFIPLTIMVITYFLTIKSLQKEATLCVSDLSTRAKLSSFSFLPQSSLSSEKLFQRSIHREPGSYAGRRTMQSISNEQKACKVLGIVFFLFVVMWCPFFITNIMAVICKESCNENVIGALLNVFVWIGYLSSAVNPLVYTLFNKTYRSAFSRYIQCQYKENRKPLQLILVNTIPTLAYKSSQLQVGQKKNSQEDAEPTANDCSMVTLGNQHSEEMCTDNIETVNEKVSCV
Experimental: Mice had free access to food and water. Animals were randomly assigned to treatment groups.
Doses were calculated based on the HCl salt. MDL100,907 [methyl-^3H] was purchased from Novandi Chemistry. Ketanserin was purchased from Tocris (UK).
Mice were dosed with vehicle or DOPR (0.32, 1, 3.2, or 32 mg/kg, SC) and sacrificed at 15 or 60 minutes after dosing (n=5 per dose/time condition) by a rising CO2 concentration followed by cervical dislocation. Whole brains were removed, rinsed briefly with saline, and blot dried. A coronal cut was made at the level of the optic chiasm to produce an anterior brain block containing the frontal cortex (according to the Mouse Brain in Stereotaxic Coordinates, Paxinos and Franklin, second edition). The anterior brain block was then cut down the midline, both blocks were placed onto cork disks, covered with OCT embedding matrix (KMA-0100-00A, Cell Path), rapidly frozen in isopentane (cooled to −20/−30° C.) and stored at −20° C. for sectioning and ex vivo autoradiography. Coronal sections containing the frontal cortex were be cut (20 μm thick) using a cryostat and thaw mounted onto Superfrost plus slides and the slides were stored at −20° C. until the day of assay.
Slides containing brain sections were warmed to room temperature and sections were isolated using a DAKO pen and incubated at room temperature for 30 minutes in 200 μL of assay buffer containing 0.2 nM [^3H]MDL100,907 (total binding) or 0.2 nM [^3H]MDL100,907 and […] ketanserin (non-specific binding). Solutions were removed from the sections by aspiration and the slides were washed for two consecutive 5-minute periods in ice-cold wash buffer. The slides were then rinsed briefly in ice-cold distilled water to remove buffer salts and allowed to air dry. The assay and wash buffer consisted of 50 mM Tris, pH 7.4. The binding assay was performed on two separate occasions.
The waxy residue of the DAKO pen was removed with xylene to prevent sparks in the β-imager. Lint-free tissue and an air duster was used to remove any dust particles from the microscope slides. To make the slides conductive, copper foil tape was adhered to the free side of the microscope slides. The slides were placed in the β-imager and the levels of bound radioactivity in the sections were directly determined by counting the number of β-particles emerging from the delineated area using the M3 vision program (BioSpace). Data was collected from the brain sections over 16 hours and expressed in counts per minute per square millimetre (cpm/mm^2). A value for specific binding (cpm/mm^2) was generated by the subtraction of mean non-specific binding (cpm/mm^2) from mean total binding (cpm/mm^2) for each animal.

[2] = DOPR pharmacokinetics after SC administration; conditions: mouse, in vivo

CCCc1cc(OC)c(CC(C)N)cc1OC (stereo not drawn) [DOPR, 2,5-dimethoxy-4-propylamphetamine]
dose maximally efficacious for induction of HTR [1]: 3.2 mg/kg
Specific Binding (% of Vehicle) (5-HT2A receptor; DOPR 0.32 mg/kg SC, 15 min): 105 % of Vehicle
Specific binding, Mean (SEM) (5-HT2A receptor; DOPR 0.32 mg/kg SC, 15 min): 1.39 (0.06) cpm/mm^2
Specific Binding (% of Vehicle) (5-HT2A receptor; DOPR 0.32 mg/kg SC, 60 min): 93 % of Vehicle
Specific binding, Mean (SEM) (5-HT2A receptor; DOPR 0.32 mg/kg SC, 60 min): 1.23 (0.08) cpm/mm^2
Specific Binding (% of Vehicle) (5-HT2A receptor; DOPR 1 mg/kg SC, 15 min): 104 % of Vehicle
Specific binding, Mean (SEM) (5-HT2A receptor; DOPR 1 mg/kg SC, 15 min): 1.38 (0.06) cpm/mm^2
Specific Binding (% of Vehicle) (5-HT2A receptor; DOPR 1 mg/kg SC, 60 min): 67 % of Vehicle
Specific binding, Mean (SEM) (5-HT2A receptor; DOPR 1 mg/kg SC, 60 min): 0.88 (0.07) cpm/mm^2
Specific Binding (% of Vehicle) (5-HT2A receptor; DOPR 3.2 mg/kg SC, 15 min): 71 % of Vehicle
Specific binding, Mean (SEM) (5-HT2A receptor; DOPR 3.2 mg/kg SC, 15 min): 0.93 (0.09) cpm/mm^2
Specific Binding (% of Vehicle) (5-HT2A receptor; DOPR 3.2 mg/kg SC, 60 min): 43 % of Vehicle
Specific binding, Mean (SEM) (5-HT2A receptor; DOPR 3.2 mg/kg SC, 60 min): 0.57 (0.05) cpm/mm^2
Specific Binding (% of Vehicle) (5-HT2A receptor; DOPR 32 mg/kg SC, 15 min): 18 % of Vehicle
Specific binding, Mean (SEM) (5-HT2A receptor; DOPR 32 mg/kg SC, 15 min): 0.23 (0.04) cpm/mm^2
Specific Binding (% of Vehicle) (5-HT2A receptor; DOPR 32 mg/kg SC, 60 min): 8 % of Vehicle
Specific binding, Mean (SEM) (5-HT2A receptor; DOPR 32 mg/kg SC, 60 min): 0.10 (0.01) cpm/mm^2
dose calculated to occupy 50% of 5-HT2A receptors (5-HT2A receptor; SC, mice): 2.08 mg/kg
receptor occupancy at 0.32 mg/kg (5-HT2A receptor; DOPR 0.32 mg/kg SC, 15 min): -5%
receptor occupancy at 0.32 mg/kg (5-HT2A receptor; DOPR 0.32 mg/kg SC, 60 min): 7%
receptor occupancy at 1 mg/kg (5-HT2A receptor; DOPR 1 mg/kg SC, 15 min): -4%
receptor occupancy at 1 mg/kg (5-HT2A receptor; DOPR 1 mg/kg SC, 60 min): 33%
receptor occupancy at 3.2 mg/kg (5-HT2A receptor; DOPR 3.2 mg/kg SC, 15 min): 29%
receptor occupancy at 3.2 mg/kg (5-HT2A receptor; DOPR 3.2 mg/kg SC, 60 min): 57%
receptor occupancy at 32 mg/kg (5-HT2A receptor; DOPR 32 mg/kg SC, 15 min): 82%
receptor occupancy at 32 mg/kg (5-HT2A receptor; DOPR 32 mg/kg SC, 60 min): 92%
Tmax [2]: 1 h
